Like-named read-outs stand apart in the source and are kept apart here.
Experiments:
Type in all cases: cell-based, human
ATXN2-luc [1] = assay: MSSR hit retest: ATXN2-luc luciferase assay, average of H2 and S1 cells (1 and 10 uM); set-up: H2&S1 ave luc 1uM / H2&S1 ave luc 10uM: scale not given here; conditions: for activity at 1 µM / activity / activity at 10 µM: Homo sapiens; for activity at 1 µM: read-out: H2&S1 ave luc 1uM; for activity / activity at 10 µM: read-out: H2&S1 ave luc 10uM
Description: (§1) Supplement mmc2.xlsx, sheet "43 annotated compounds"

ATXN2-luc [2] = assay: MSSR hit retest / multiconcentration testing: ATXN2-luc luciferase assay in H2 cells (1 and 10 μM); conditions: luciferase, average of H2 and S1 cells expressing ATXN2-luc, rescreen; for H2&S1 ave luc 1uM: 1 uM compound; for H2&S1 ave luc 10uM: 10 uM compound
ATXN2-luc [3] = assay: MSSR pilot screen: ATXN2-luc luciferase assay (Bright-Glo) in H2 cells, single 10 μM dose; conditions: for SD from mean (ATXN2-luc, Z-score): H2 cells, single dose (title: 10 μM compound), overnight; for ¦Score/1SD¦: absolute score divided by 1SD (0.891 or 0.9)
H2 and S1 cells = assay: Paired MTT viability assay, average of H2 and S1 cells (1 and 10 uM); set-up: H2&S1 ave MTT 1uM / H2&S1 ave MTT 10uM: unit not given here; conditions: for viability at 1 µM / viability at 10 µM: Homo sapiens
Description: as §1

ATXN2-luc [4] = assay: NCATS qHTS (LOPAC pilot, primary and confirmation): ATXN2-luc in S2 cells, 1536-well, Steady-Glo; conditions: LOPAC library screening optimization; for AC50: Homo sapiens
Protocol: We next performed a pilot screen assay to optimize the 1536-well qHTS using S2 cells. […] Cytotoxicity was determined using a multiplexed viability assay (CellTiter-Fluor, a fluorescence-based viability assay using Gly-Phe-7-amino-4-trifluoromethylcoumarin substrate).
CellTiter-Fluor was used to determine compound effect on cell viability, and Steady-Glo was used to measure luciferase in a multiplexed assay.
The primary assay was conducted at the NCATS NIH Chemical Genomics Center laboratory. About 4 μl of S2 cell suspension in phenol red–free DMEM was dispensed into wells of 1536-well assay plates. […] Next, SteadyGlo luciferase substrate detection reagent (3 μl) was added to each well and incubated for an additional 5 min at room temperature. Luminescence was then measured on the ViewLux imager equipped with clear filters using a 2 s exposure. All screening operations were performed on a fully integrated robotic system (Kalypsys) containing one RX-130 and two RX-90 anthropomorphic robotic arms (Stäubli). Vehicle-only plates, with DMSO being pin-transferred to columns 5 to 48, were inserted uniformly at the beginning and the end of each library in order to monitor and record any shifts in assay performance.

CMV-luc = assay: Secondary assays: CMV-luc in SC cells, Bright-Glo; conditions: minimum CMV-luc signal in SC cells over 12 doses; summary data
Protocol: (§2) Compounds were plated at 2× concentrations in phenol red–free DMEM in 25 μl in 384-well plates with each compound dose plated in triplicate. An equal volume of S2, H2, or SC cells (24,000 cells/well) suspended in phenol red–free DMEM with 10% fetal bovine serum and 1× penicillin/streptomycin were added. Cells were grown 24 h and then assayed first by using the CellTiter-Fluor reagent (20 μl) followed by the addition of Bright-Glo (65 μl) luciferase assay, using a multimode plate reader (Beckman; DT880). Values were reported as the mean ± SD with n = 3. IC50s were determined by the Hill coefficient method using an online tool (https://www.aatbio.com/tools/ic50-calculator).

ATXN2-luc [5] = assay: Secondary assays: ATXN2-luc in S2 and H2 cells, 12 doses, Bright-Glo; conditions: summary data
Protocol: The values for H2 and S2 were used as replicates to calculate IC50s and to assess cell viability.
as §2

[6] = 1 uM compound, average of H2 and S1 cells
[7] = pilot screen at 10 µM compound, H2 cells expressing ATXN2-luc
[8] = read-out: H2&S1 ave MTT 1uM, 1 uM compound
[9] = read-out: H2&S1 ave MTT 10uM, 10 uM compound
[10] = pilot screen, H2 cells expressing ATXN2-luc, single dose printed as 10 μM compound
[11] = head line r3 10uM, average of H2 and S1 cells
[12] = 1 uM compound, read-out: H2&S1 ave MTT 1uM
[13] = 10 uM compound, read-out: H2&S1 ave MTT 10uM

Structure (SMILES)	SD from mean (ATXN2-luc, Z-score) (ATXN2-luc [3]) [SD]	SD from mean (pilot screen) (ATXN2-luc [3]; pilot screen) [SD]	SD from mean (pilot screen) (ATXN2-luc [3]; [7])	¦Score/1SD¦ (ATXN2-luc [3]; pilot screen)	activity at 1 µM (ATXN2-luc [1]) [%]	activity (ATXN2-luc [1]) [%]	viability at 1 µM (H2 and S1 cells; [8]) [%]	viability at 10 µM (H2 and S1 cells; [9]) [%]	other results
C/C1=C2/[N-][C@H]([C@H](CC(N)=O)[C@@]2(C)CCC(=O)NC[C@@H](C)OP(=O)([O-])O[C@H]2[C@@H](O)[C@@H](n3cnc4cc(C)c(C)cc43)O[C@@H]2CO)[C@]2(C)N=C(/C(C)=C3N=C(/C=C4N=C1[C@@H](CCC(N)=O)C\4(C)C)[C@@H](CCC(N)=O)[C@]\3(C)CC(N)=O)[C@@H](CCC(N)=O)[C@]2(C)CC(N)=O.[Co] [COBALAMINE]	-5.111	-5.111	-5.111	5.68					H2&S1 ave luc 1uM (ATXN2-luc [1]; [6]): 126; H2&S1 ave luc 10uM (ATXN2-luc [1]; head line r3 10uM, head line r4 20 uM compound, average of H2 and S1 cells): 109; H2&S1 ave luc 1uM (ATXN2-luc [2]): 126; H2&S1 ave luc 10uM (ATXN2-luc [2]): 109; H2&S1 ave MTT 1uM (H2 and S1 cells; 1 uM compound): 115.867; H2&S1 ave MTT 10uM (H2 and S1 cells; 10 uM compound): 108.02
CC(=O)O[C@H]1C[C@H](O[C@H]2[C@@H](O)C[C@H](O[C@H]3[C@@H](O)C[C@H](O[C@H]4CC[C@@]5(C)[C@H](CC[C@@H]6[C@@H]5C[C@@H](O)[C@]5(C)[C@@H](C7=CC(=O)OC7)CC[C@]65O)C4)O[C@@H]3C)O[C@@H]2C)O[C@H](C)[C@H]1O[C@@H]1O[C@H](CO)[C@@H](O)[C@H](O)[C@H]1O [LANATOSIDE C]					39	15	35	35.6	H2&S1 ave luc 1uM (ATXN2-luc [2]): 39; H2&S1 ave luc 10uM (ATXN2-luc [2]): 15
C[C@H]1O[C@@H](O[C@H]2CC[C@]3(C=O)[C@H]4CC[C@]5(C)[C@@H](C6=CC(=O)OC6)CC[C@]5(O)[C@@H]4CC[C@]3(O)C2)C[C@H](O)[C@@H]1O [Helveticoside]	-2.733	-2.733		3.07	118	41	99	37.1	SD from mean (pilot screen) (ATXN2-luc [3]; [10]): -2.733; AC50 (ATXN2-luc [4]; logarithm of AC50 (negative values), read-out: Log AC50 (converted)): 3.55 µM; AC50 (ATXN2-luc [4]; read-out: AC50): 3.55 µM; Efficacy (ATXN2-luc [4]; curve-fit parameter): -86.9163; Inf Activity (ATXN2-luc [4]; curve-fit parameter): -84.4727
C[C@]12CC[C@H](O)C[C@H]1CC[C@@H]1[C@@H]2CC[C@]2(C)[C@@H](C3=CC(=O)OC3)CC[C@]12O [Digitoxigenin]	-3.629	-3.629	-3.629	4.07					activity at 1 µM (ATXN2-luc [1]; [6]): 38%; activity at 10 µM (ATXN2-luc [1]; [11]): 13%; viability at 1 µM (H2 and S1 cells; [12]): 81.6%; viability at 10 µM (H2 and S1 cells; [13]): 74.8%
CO[C@H]1[C@H](O)[C@H](O[C@H]2CC[C@@]3(C)[C@H](CC[C@@H]4[C@@H]3CC[C@]3(C)[C@@H](C5=CC(=O)OC5)CC[C@]43O)C2)O[C@@H](C)[C@@H]1O [NERIIFOLIN]	-3.045	-3.045		3.38	17	17	30.8	36.1	SD from mean (pilot screen) (ATXN2-luc [3]; [10]): -3.045
CC(C)=CCc1c(O)cc2occ(-c3ccc4c(c3)OCO4)c(=O)c2c1O [DERRUBONE]	-3.621	-3.621	-3.621	4.02					activity at 1 µM (ATXN2-luc [1]; [6]): 11%; activity at 10 µM (ATXN2-luc [1]; [11]): 15%; viability at 1 µM (H2 and S1 cells; [12]): 107%; viability at 10 µM (H2 and S1 cells; [13]): 101%
Nc1ccc(-c2ccc3ncc4ccc(=O)n(-c5cccc(C(F)(F)F)c5)c4c3c2)cn1 [NCGC00263216-02, torin 2]									min SC luc (%) (CMV-luc): 128.375%; IC50 (ATXN2-luc [5]; ATXN2-luc luciferase assays in H2 and S2 cells, 12 doses plus a zero dose, read-out: Mean IC50): 257 nM; min ATXN2-luc (%) (ATXN2-luc [5]; minimum ATXN2-luc signal over 12 doses, H2 and S2 cells): 25.4183%
